Like-named read-outs stand apart in the source and are kept apart here.
What was measured:
[1] = system: Colletotrichum orbiculare; test: Test Example H: Anthracnose on cucumber; details: for Test H control value: 6 to 10 days after inoculation; for Test H control value class: Anthracnose on cucumber (Sagami Hanjiro), 2.5 ml/pot, assessed 6 to 10 days after inoculation; for pest or weed control at 250 ppm: Colletotrichum orbiculare, in Cucumis sativus, topical
[2] = system: Magnaporthe grisea; test: whole plant or invertebrate; assay type: in vivo; details: for Test A control value class: class of control value; for pest or weed control at 250 µg/mL: Pyricularia oryzae, in Oryza sativa
[3] = system: Plasmopara viticola; test: Test Example G: Downy mildew on vine; details: for Test G control value: 7 to 10 days after inoculation; for Test G control value class: Downy mildew on vine (Neomuscat), 2.5 ml/pot, assessed 7 to 10 days after inoculation; for pest or weed control at 250 ppm: Plasmopara viticola, topical
[4] = system: Puccinia recondita; test: Test Example E: Brown rust on wheat; assay type: in vivo; details: for pest or weed control at 250 µg/mL: Puccinia recondita, topical
[5] = system: Phytophthora infestans; test: whole plant or invertebrate; assay type: in vivo; details: for Test F control value class: class of control value; for pest or weed control at 250 µg/mL: Phytophthora infestans, in Solanum lycopersicum, topical
[6] = system: Blumeria graminis f. sp. hordei; test: Test Example D: Powdery mildew on barley; details: for Test D control value class: class of control value; for pest or weed control at 250 µg/mL: Blumeria graminis, in Hordeum vulgare, topical
[7] = system: Alternaia brassicicola; test: Test Example C: Alternaria sooty spot on cabbage; assay type: in vivo; details: for pest or weed control at 250 µg/mL: Brassica oleracea, topical
Text: Seeds of a test plant (cabbage variety: Shikidori) were planted and cultivated until the cotyledons extended.
<Control Value> Control value=100{1−(n/3)}

[8] = system: Botrytis cinerea; test: Test Example B: Gray mold on tomato; details: for Test B control value class: class of control value; for pest or weed control at 250 µg/mL: Botrytis cinerea, in Solanum lycopersicum, topical
[9] = 250 ppm drug solution sprayed (2.5 ml/pot), cucumber Sagami Hanjiro
[10] = 250 ppm drug solution sprayed on test plant
[11] = 250 ppm drug solution sprayed (2.5 ml/pot), grape Neomuscat
[12] = Anthracnose on cucumber, 250 ppm spray
[13] = Blast on rice, control value class
[14] = Downy mildew on vine, 250 ppm spray
[15] = Brown rust on wheat, control value class
[16] = Late blight on tomato, control value class
[17] = Powdery mildew on barley, control value class
[18] = Alternaria sooty spot on cabbage, control value class
[19] = Gray mold on tomato, control value class
[20] = Brown rust on wheat, class of control value
[21] = Alternaria sooty spot on cabbage, class of control value

CCCc1cc(Cl)c(=O)n(C)c1-c1ccc(OC)cc1Br [compound 417]
Test H control value [1, 9]: H (more than 50% control value) | Test A control value [2, 10]: L (50% or less control value) | Test G control value [3, 11]: L (50% or less control value) | Test E control value [4, 10]: H (more than 50% control value) | Test F control value [5, 10]: L (50% or less control value) | Test D control value [6, 10]: L (50% or less control value) | Test C control value [7, 10]: H (more than 50% control value) | Test B control value [8, 10]: H (more than 50% control value)

CCn1c(-c2ccc(OC)cc2)c(C(O)C(C)C)cc(Cl)c1=O (stereo not drawn) [compound 246]
Test H control value [1, 12]: L (50% or less control value) | Test A control value [2, 13]: L (50% or less control value) | Test G control value [3, 14]: L (50% or less control value) | Test E control value [4, 15]: H (more than 50% control value) | Test F control value [5, 16]: L (50% or less control value) | Test D control value [6, 17]: L (50% or less control value) | Test C control value [7, 18]: H (more than 50% control value) | Test B control value [8, 19]: L (50% or less control value)

CCn1c(-c2c(F)cc(F)cc2F)c(C(O)C(C)C)cc(Cl)c1=O (stereo not drawn) [compound 64]
Test H control value class ([1]; 250 ppm spray): H (more than 50% control value) | Test A control value class ([2]; Blast on rice): H (more than 50% control value) | Test G control value class ([3]; 250 ppm spray): H (more than 50% control value) | Test E control value class [4, 20]: H (more than 50% control value) | Test F control value class ([5]; Late blight on tomato): L (50% or less control value) | Test D control value class ([6]; Powdery mildew on barley): H (more than 50% control value) | Test C control value class [7, 21]: H (more than 50% control value) | Test B control value class ([8]; Gray mold on tomato): H (more than 50% control value)

CCC(OC)c1cc(Cl)c(=O)n(C)c1-c1c(F)cc(OC)cc1F (stereo not drawn) [compound 506]
Test H control value [1, 9]: H (more than 50% control value) | Test A control value [2, 10]: H (more than 50% control value) | Test G control value [3, 11]: H (more than 50% control value) | Test E control value [4, 10]: H (more than 50% control value) | Test F control value [5, 10]: L (50% or less control value) | Test D control value [6, 10]: H (more than 50% control value) | Test C control value [7, 10]: H (more than 50% control value) | Test B control value [8, 10]: H (more than 50% control value)

CC(C)C(O)c1cc(Cl)c(=O)n(C)c1-c1c(F)cc(F)cc1F (stereo not drawn) [compound 447]
Test H control value [1, 9]: H (more than 50% control value) | Test A control value [2, 10]: H (more than 50% control value) | Test G control value [3, 11]: H (more than 50% control value) | Test E control value [4, 10]: H (more than 50% control value) | Test F control value [5, 10]: L (50% or less control value) | Test D control value [6, 10]: H (more than 50% control value) | Test C control value [7, 10]: H (more than 50% control value) | Test B control value [8, 10]: H (more than 50% control value)

CCn1c(-c2c(F)cccc2F)c(C(C)(CC)OC)cc(Cl)c1=O (stereo not drawn) [Compound No. 29, 3-chloro-6-(2,6-difluorophenyl)-1-ethyl-5-(2-methoxybutan-2-yl)pyridin-2(1H)-one]
pest or weed control at 250 ppm ([1]; read-out: Test H control value class): > 50% | pest or weed control at 250 µg/mL ([2]; read-out: Test A control value class): > 50% | pest or weed control at 250 ppm ([3]; read-out: Test G control value class): > 50% | pest or weed control at 250 µg/mL ([4]; Brown rust on wheat, class of control value, read-out: Test E control value class): > 50% | pest or weed control at 250 µg/mL ([5]; read-out: Test F control value class): < 50% | pest or weed control at 250 µg/mL ([6]; read-out: Test D control value class): > 50% | pest or weed control at 250 µg/mL ([7]; Alternaria sooty spot on cabbage, class of control value, read-out: Test C control value class): > 50% | pest or weed control at 250 µg/mL ([8]; read-out: Test B control value class): > 50%

CCOC(C)c1cc(Cl)c(=O)n(CC)c1-c1c(F)cccc1F (stereo not drawn) [compound 19]
Test H control value class ([1]; 250 ppm spray): H (more than 50% control value) | Test A control value class ([2]; Blast on rice): H (more than 50% control value) | Test G control value class ([3]; 250 ppm spray): H (more than 50% control value) | Test E control value class [4, 20]: H (more than 50% control value) | Test F control value class ([5]; Late blight on tomato): L (50% or less control value) | Test D control value class ([6]; Powdery mildew on barley): H (more than 50% control value) | Test C control value class [7, 21]: H (more than 50% control value) | Test B control value class ([8]; Gray mold on tomato): H (more than 50% control value)

CCCc1cc(C)c(=O)n(C)c1-c1ccc(F)cc1Cl [Compound No. 339, 6-(2-chloro-4-fluorophenyl)-1,3-dimethyl-5-propylpyridin-2(1H)-one]
pest or weed control at 250 ppm ([1]; 144 h, read-out: Test H control value): > 50% | pest or weed control at 250 µg/mL ([2]; read-out: Test A control value): > 50% | pest or weed control at 250 ppm ([3]; 168 h, read-out: Test G control value): > 50% | pest or weed control at 250 µg/mL ([4]; Brown rust on wheat, control value class, read-out: Test E control value): > 50% | pest or weed control at 250 µg/mL ([5]; read-out: Test F control value): < 50% | pest or weed control at 250 µg/mL ([6]; read-out: Test D control value): > 50% | pest or weed control at 250 µg/mL ([7]; Alternaria sooty spot on cabbage, control value class, read-out: Test C control value): < 50% | pest or weed control at 250 µg/mL ([8]; read-out: Test B control value): > 50%

CCCCCCCCCc1cc(Cl)c(=O)n(CC)c1-c1ccc(F)cc1Cl [compound 274]
Test H control value [1, 12]: L (50% or less control value) | Test A control value [2, 13]: L (50% or less control value) | Test G control value [3, 14]: L (50% or less control value) | Test E control value [4, 15]: L (50% or less control value) | Test F control value [5, 16]: L (50% or less control value) | Test D control value [6, 17]: H (more than 50% control value) | Test C control value [7, 18]: L (50% or less control value) | Test B control value [8, 19]: L (50% or less control value)

CCC(C)c1ccc(=O)n(CC)c1-c1c(F)cc(OC)cc1F (stereo not drawn) [compound 34]
Test H control value class ([1]; 250 ppm spray): H (more than 50% control value) | Test A control value class ([2]; Blast on rice): H (more than 50% control value) | Test G control value class ([3]; 250 ppm spray): H (more than 50% control value) | Test E control value class [4, 20]: H (more than 50% control value) | Test F control value class ([5]; Late blight on tomato): L (50% or less control value) | Test D control value class ([6]; Powdery mildew on barley): H (more than 50% control value) | Test C control value class [7, 21]: H (more than 50% control value) | Test B control value class ([8]; Gray mold on tomato): H (more than 50% control value)

CCn1c(-c2c(F)cc(F)cc2F)c(C(C)(O)CC(C)C)cc(Cl)c1=O (stereo not drawn) [compound 154]
Test H control value class ([1]; 250 ppm spray): H (more than 50% control value) | Test A control value class ([2]; Blast on rice): H (more than 50% control value) | Test G control value class ([3]; 250 ppm spray): H (more than 50% control value) | Test E control value class [4, 20]: H (more than 50% control value) | Test F control value class ([5]; Late blight on tomato): L (50% or less control value) | Test D control value class ([6]; Powdery mildew on barley): H (more than 50% control value) | Test C control value class [7, 21]: H (more than 50% control value) | Test B control value class ([8]; Gray mold on tomato): H (more than 50% control value)

CCCC1=C(c2c(F)cccc2F)N(CC)C(=O)CC1 [compound 422]
Test H control value [1, 9]: L (50% or less control value) | Test A control value [2, 10]: L (50% or less control value) | Test G control value [3, 11]: L (50% or less control value) | Test E control value [4, 10]: L (50% or less control value) | Test F control value [5, 10]: L (50% or less control value) | Test D control value [6, 10]: H (more than 50% control value) | Test C control value [7, 10]: H (more than 50% control value) | Test B control value [8, 10]: L (50% or less control value)

CCn1c(-c2c(F)cc(F)cc2F)c(C#N)cc(Cl)c1=O [compound 230]
Test H control value [1, 12]: L (50% or less control value) | Test A control value [2, 13]: L (50% or less control value) | Test G control value [3, 14]: H (more than 50% control value) | Test E control value [4, 15]: L (50% or less control value) | Test F control value [5, 16]: L (50% or less control value) | Test D control value [6, 17]: L (50% or less control value) | Test C control value [7, 18]: L (50% or less control value) | Test B control value [8, 19]: L (50% or less control value)

CCCc1cc(Cl)c(=O)n(CC)c1-c1ccc(OC)cc1Cl [compound 320]
Test H control value [1, 12]: H (more than 50% control value) | Test A control value [2, 13]: H (more than 50% control value) | Test G control value [3, 14]: H (more than 50% control value) | Test E control value [4, 15]: H (more than 50% control value) | Test F control value [5, 16]: H (more than 50% control value) | Test D control value [6, 17]: H (more than 50% control value) | Test C control value [7, 18]: H (more than 50% control value) | Test B control value [8, 19]: H (more than 50% control value)

CCn1c(-c2c(F)cc(OC)cc2F)c(CC(C)C)ccc1=O [compound 39]
Test H control value class ([1]; 250 ppm spray): H (more than 50% control value) | Test A control value class ([2]; Blast on rice): H (more than 50% control value) | Test G control value class ([3]; 250 ppm spray): H (more than 50% control value) | Test E control value class [4, 20]: H (more than 50% control value) | Test F control value class ([5]; Late blight on tomato): L (50% or less control value) | Test D control value class ([6]; Powdery mildew on barley): H (more than 50% control value) | Test C control value class [7, 21]: H (more than 50% control value) | Test B control value class ([8]; Gray mold on tomato): H (more than 50% control value)

— patent publication US11147272B2, “Pyridone compounds and agricultural and horticultural fungicides comprising the same as active ingredients” (MITSUI CHEMICALS AGRO, INC., priority 2017, dated 2021)
